The results in this text go back to US20260306640A1, “TECHNOLOGIES TARGETING CELL STATES” (Auron Therapeutics, Inc., priority 2023, published 2026).

In general, GI50 refers to the concentration giving 50% growth inhibition. One may read the DC50 as the midpoint of the concentration-degradation curve.

Where two headings read alike, the source gives them in different places.

In one test the test system is histone acetylation. Nature of the test: Western blot of histone acetylation in NCI-H1048 tumors, 168 hours post last dose. Type of test: in vivo. To be noted: FIG. 1 (F). As to the method: FIG. 1. Provided compounds can provide various activities including inhibiting tumor growth in vivo. (A): Provided compounds can inhibit tumor growth in vivo. Nude Balb/c mice were inoculated with NCI-H1048 cells in Matrigel. Tumors were allowed to grow up to about 200 mm^3 and mice were then randomized into two groups. Mice were dosed intraperitoneally (i.p.) once per week with vehicle or 30 mg/kg compound 22. Tumor size was measured every three to four days and mice were sacrificed once vehicle tumors reached 2000 mm^3. Error bar is SEM. Dosing started at day 17 post tumor inoculation. (B): Provided technologies can reduce KAT2A and KAT2B levels and histone acetylation levels. […] Vehicle is DMSO. […] Cell count data relative to DMSO control after 8 days of treatment with compound 22 are presented as examples to confirm inhibition. GI50=6 nM. (D): Provided technologies can inhibit tumor growth in vivo. Nude balb/c mice inoculated with H1048 tumors were dosed intraperitoneally once per week (qw i.p.) with vehicle (HbCD) or compound 22. Average tumor volumes+/−SEM from 6 mice are represented. […] See also (A). […] Certain body weights relative to starting weight are presented as examples to confirm tolerability and safety. (F): Provided technologies can reduce KAT2A and KAT2B levels and histone acetylation levels in tumor in vivo. […]
On the technique in general: A western blot detects proteins with antibodies after separation by electrophoresis.

The test system of another test is LASCPC-01 cells. In words: Cell viability (Cell Titer Glo, 7 days), LASCPC-01 cells. To be noted: 168 h, Cell Titer Glo relative to DMSO control after 7 days, FIG. 3 (B). The test is classed as cell-based. Here is the method: FIG. 3. Provided compounds can provide various activities. (A): Provided technologies can reduce KAT2A and KAT2B levels and histone acetylation levels. […] Cell viability (Cell Titer Glo) data relative to DMSO control after 7 days of treatment with compound 22 are presented as examples to confirm inhibition. GI50=5 nM. (C): Provided technologies can modulate cell states and induce differentiation. […] (D): Provided technologies can reduce KAT2A and KAT2B levels and histone acetylation levels including in neuroendocrine prostate cancer primary patient organoid. […] Concentrations are nM. […] Cell viability data relative to DMSO control after 21 days of treatment with compound 22 are presented as examples to confirm inhibition. GI50=3 nM. (F): Provided technologies can modulate cell states and induce differentiation.
(ATP-based viability assays read luminescence as a measure of living cells.)

The next test addresses KAT2B (Homo sapiens, UniProt Q92831). In words: KAT2B degradation, Western Blot (Jess), NCI-H1048 cells. Type of test: cell-based. More on the design: degrader, Western blot (Jess). In short, it runs like this: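 NCI-H1048 cells grown in HITES medium with 5% FBS were treated with compounds for 24 h at 37° C. Lysates were run by capillary Western (Jess) with KAT2A or KAT2B antibodies and chemiluminescent detection. DC50 derived from percent protein reduction versus DMSO control.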

KAT2B, sequence (Q92831 whole entry): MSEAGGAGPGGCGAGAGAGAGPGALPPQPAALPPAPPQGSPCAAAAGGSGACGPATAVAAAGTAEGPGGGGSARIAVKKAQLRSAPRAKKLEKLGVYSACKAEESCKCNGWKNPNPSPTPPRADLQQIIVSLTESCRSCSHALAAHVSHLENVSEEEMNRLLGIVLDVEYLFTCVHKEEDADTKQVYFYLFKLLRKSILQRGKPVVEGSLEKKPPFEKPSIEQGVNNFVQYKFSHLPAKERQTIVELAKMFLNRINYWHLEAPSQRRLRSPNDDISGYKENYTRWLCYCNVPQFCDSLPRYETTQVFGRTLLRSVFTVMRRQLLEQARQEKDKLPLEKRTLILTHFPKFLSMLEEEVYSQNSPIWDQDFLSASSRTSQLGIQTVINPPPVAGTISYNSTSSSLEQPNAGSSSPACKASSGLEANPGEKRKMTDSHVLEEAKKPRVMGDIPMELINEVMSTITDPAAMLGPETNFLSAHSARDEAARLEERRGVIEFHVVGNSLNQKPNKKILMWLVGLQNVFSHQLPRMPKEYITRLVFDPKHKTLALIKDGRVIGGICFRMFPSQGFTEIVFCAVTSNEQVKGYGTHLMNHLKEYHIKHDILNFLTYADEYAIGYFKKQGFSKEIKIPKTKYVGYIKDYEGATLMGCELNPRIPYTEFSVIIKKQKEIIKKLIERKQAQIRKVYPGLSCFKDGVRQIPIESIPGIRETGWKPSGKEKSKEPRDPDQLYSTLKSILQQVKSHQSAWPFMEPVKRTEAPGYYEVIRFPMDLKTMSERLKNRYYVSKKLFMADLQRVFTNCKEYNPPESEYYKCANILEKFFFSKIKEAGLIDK

Turning to `CN1C[C@H](Nc2cnn(C)c(=O)c2Br)C[C@H](c2ccc(C(=O)N3CCC(CN4CCN(c5ccc6c(c5)CN(C5CCC(=O)NC5=O)C6=O)CC4)CC3)cc2)C1` (stereo partly drawn) [Compound 22, 3-(5-(4-((1-(4-((3R,5R)-5-((5-bromo-1-methyl-6-oxo-1,6-dihydropyridazin-4-yl)amino)-1-methylpiperidin-3-yl)benzoyl)piperidin-4-yl)methyl)piperazin-1-yl)-1-oxoisoindolin-2-yl)piperidine-2,6-dione], the “reduction of histone acetylation in tumor” value in the test on histone acetylation is given as “significant reduction”. This compound came in with a GI50 in the test on LASCPC-01 cells of 5 nM. Besides, on KAT2B (24 h, NCI-H1048, KAT2B, read-out: DC90 (the source's name)), the EC90 came to 1.44 nM. For the same compound, the DC50 at KAT2B (NCI-H1048, KAT2B, read-out: DC50) was 0.04 nM; on KAT2B (NCI-H1048 cells, KAT2B, 24 h, Western Blot, vs DMSO, read-out: KAT2B NCI-H1048 DC50), less than 1 nM. Moreover, the KAT2B levels result on KAT2B (NCI-H1048 cells, FIG. 1) is “potently reduce KAT2A and KAT2B levels”.
